Reference: patent US20150366836A1, “METHOD AND PHARMACEUTICAL COMPOSITION FOR TREATING COLORECTAL CANCER” (National Dong Hua University, priority 2014, published 2015)
pIC50: −log10 of the molar value.

Columns and labels:
Assay type in all cases: cell-based
HT-29 cells [1] = assay: MTT assay cell viability, HT-29 cells
Experimental: (§1) Two cell lines were used in this study, Caco2 cells and HT-29 cells. Both of them are colorectal cancer cells. Caco2 cells and HT-29 cells were maintained in DMEM (or RPMI) supplemented with 20% or 10% fetal bovine serum (FBS; GIBCO), pH 7.4 at 37° C. with continuous circulation of 5% CO2 incubator. The medium was changed every 2 days and the cells were trypsinized using trypsin/EDTA when reaching 80%-90% confluence.
(§2) In this example, the effects of HCD, PG, and 5-FU on the viability of Caco2 cells and HT-29 cells were examined. The MTT assay was employed for this purpose. The MTT (3-(4-,5-dimethylthiazol-2-yl)-2,5-diphenyltetrazolium bromide) assay is a common colorimetric method in the field for cell viability analysis. MTT (yellow tetrazolium salt) is reduced to a purple formazan by living cells and detection to the purple formazan can be calculated as the cell viability.
(§3) Briefly, cells (Caco2 or HT-29) were seeded in 96-well plate (7×10^3 cell per well) and incubated overnight (37° C., 5% CO2).
(§4) On the other hand, in the pretreatment analysis, cells (Caco2 or HT-29) were seeded in 96-well plate (7×10^3 cell per well) and incubated overnight (37° C., 5% CO2). In according to the treatments listed in the Table 1, Cells were pre-treated by HCD or PG for 6, 12, 24, 36, or 48 hr and then were treated by 5-FU for additional 24 hr.

Caco2 cells [2] = assay: MTT assay cell viability, Caco2 cells
Experimental: as §1, §2, §3, §4

HT-29 cells [3] = assay: Cell cycle analysis by flow cytometer (PI staining), HT-29 cells
Experimental: (§5) The results of Example 2 in cell viability hinted the effects of HCD, PG, and 5-FU on arresting cell cycle. In this example, the phase of cell cycle of Caco2 and HT-29 cells after the treatment listed in Table 1 was determined by flow cytometer. Briefly, 7×10^4 cells per well were inoculated in 12-wells plate and incubated overnight at 37° C., 5% CO2. Then, cells were treated according to the treatment listed in Table 1 by indicated time period. After treatment, cells were harvested by trypsin and fixed with 70% ethanol at −20° C. for at least 3 hr. The cells were washed in cold PBS twice and then incubated with 1 mL (v/v) staining solution (20 μg/mL propidium iodide (PI), 0.1% Triton X-100, 0.2 mg/mL Rnase) at 37° C. for 30 minutes. Lastly, cells were analyzed by flow cytometer (Cytomics™ FC500, Backman, Fullerton, Calif., USA). Data from 10,000 cells were collected for each experimental group.

Caco2 cells [4] = assay: Cell cycle analysis by flow cytometer (PI staining), Caco2 cells
Experimental: as §5

CCCCCC1=C/C(=C/c2[nH]c(-c3ccc[nH]3)cc2OC)N=C1C [PG, Prodigiosin]
effect of pre-treating on efficacy of 5-FU in the subsequent treatment (MTT) (HT-29 cells [1]; HT-29, pre-treatment 6-48 hr, then 5-FU 2 μM 24 hr): significantly enhanced the efficacy of 5-FU | pIC50 (HT-29 cells [1]; Homo sapiens, HT-29 cells, 36 hr treatment): 6.30 | effect of pre-treating on efficacy of 5-FU in the subsequent treatment (MTT) (Caco2 cells [2]; Caco2, pre-treatment 6-48 hr, then 5-FU 2 μM 24 hr): significantly enhanced the efficacy of 5-FU | pIC50 (Caco2 cells [2]; Homo sapiens, Caco-2, Caco2 cells, 48 hr treatment): 5.70 | G0/G1 (%) (HT-29 cells [3]; HT-29, 0.5 μM, 24 hr): 65.3 ± 5.66 % | G2/M (%) (HT-29 cells [3]; HT-29, 0.5 μM, 24 hr): 11.65 ± 0.78% | S (%) (HT-29 cells [3]; HT-29, 0.5 μM, 24 hr): 5.9 ± 1.13 % | Sub G1 (%) (HT-29 cells [3]; HT-29, 0.5 μM, 24 hr): 14.65 ± 4.03 % | G0/G1 (%) (HT-29 cells [3]; HT-29, 0.5 μM, 36 hr): 48.28 ± 6.29 % | G2/M (%) (HT-29 cells [3]; HT-29, 0.5 μM, 36 hr): 5.8 ± 0.84% | S (%) (HT-29 cells [3]; HT-29, 0.5 μM, 36 hr): 5.8 ± 0.68 % | Sub G1 (%) (HT-29 cells [3]; HT-29, 0.5 μM, 36 hr): 37.88 ± 7.42 % | G0/G1 (%) (HT-29 cells [3]; HT-29, 2 μM, 24 hr): 54.35 ± 5.02% | G2/M (%) (HT-29 cells [3]; HT-29, 2 μM, 24 hr): 12.35 ± 2.33% | S (%) (HT-29 cells [3]; HT-29, 2 μM, 24 hr): 9.85 ± 1.2% | Sub G1 (%) (HT-29 cells [3]; HT-29, 2 μM, 24 hr): 20.05 ± 5.87 % | G0/G1 (%) (HT-29 cells [3]; HT-29, 2 μM, 36 hr): 29.15 ± 3.18 % | G2/M (%) (HT-29 cells [3]; HT-29, 2 μM, 36 hr): 14.4 ± 0.71 % | S (%) (HT-29 cells [3]; HT-29, 2 μM, 36 hr): 12.3 ± 1.13 % | Sub G1 (%) (HT-29 cells [3]; HT-29, 2 μM, 36 hr): 40.25 ± 3.32 % | G0/G1 (%) (HT-29 cells [3]; HT-29, 5 μM, 24 hr): 49.8 ± 7.07% | G2/M (%) (HT-29 cells [3]; HT-29, 5 μM, 24 hr): 13.25 ± 0.21% | S (%) (HT-29 cells [3]; HT-29, 5 μM, 24 hr): 12.9 ± 0% | Sub G1 (%) (HT-29 cells [3]; HT-29, 5 μM, 24 hr): 19.6 ± 7.95 % | G0/G1 (%) (HT-29 cells [3]; HT-29, 5 μM, 36 hr): 27.85 ± 1.06 % | G2/M (%) (HT-29 cells [3]; HT-29, 5 μM, 36 hr): 3.2 ± 0.85 % | S (%) (HT-29 cells [3]; HT-29, 5 μM, 36 hr): 5.9 ± 0.42 % | Sub G1 (%) (HT-29 cells [3]; HT-29, 5 μM, 36 hr): 61.85 ± 2.47 % | cell cycle phases after pre-treatment then 5-FU (in words) (HT-29 cells [3]; HT-29, pre-treatment, then 5-FU): increase of sub G1 phase and decrease of G2/M phase | G0/G1 (%) (Caco2 cells [4]; Caco2, 0.5 μM, 36 hr): 51.3 ± 3.8% | G2/M (%) (Caco2 cells [4]; Caco2, 0.5 μM, 36 hr): 14.93 ± 4.27% | S (%) (Caco2 cells [4]; Caco2, 0.5 μM, 36 hr): 12.97 ± 0.49% | Sub G1 (%) (Caco2 cells [4]; Caco2, 0.5 μM, 36 hr): 18.67 ± 2.06 % | G0/G1 (%) (Caco2 cells [4]; Caco2, 0.5 μM, 48 hr): 53.43 ± 13.12% | G2/M (%) (Caco2 cells [4]; Caco2, 0.5 μM, 48 hr): 15.9 ± 8.23% | S (%) (Caco2 cells [4]; Caco2, 0.5 μM, 48 hr): 18.17 ± 7.05% | Sub G1 (%) (Caco2 cells [4]; Caco2, 0.5 μM, 48 hr): 11.67 ± 4.07% | G0/G1 (%) (Caco2 cells [4]; Caco2, 2 μM, 36 hr): 44.53 ± 7.05% | G2/M (%) (Caco2 cells [4]; Caco2, 2 μM, 36 hr): 17.33 ± 1.95% | S (%) (Caco2 cells [4]; Caco2, 2 μM, 36 hr): 14.33 ± 1.76% | Sub G1 (%) (Caco2 cells [4]; Caco2, 2 μM, 36 hr): 21.47 ± 3.41 % | G0/G1 (%) (Caco2 cells [4]; Caco2, 2 μM, 48 hr): 49.87 ± 9.56% | G2/M (%) (Caco2 cells [4]; Caco2, 2 μM, 48 hr): 12.43 ± 4.48% | S (%) (Caco2 cells [4]; Caco2, 2 μM, 48 hr): 15 ± 6.14% | Sub G1 (%) (Caco2 cells [4]; Caco2, 2 μM, 48 hr): 18.77 ± 7.49% | G0/G1 (%) (Caco2 cells [4]; Caco2, 5 μM, 36 hr): 37.9 ± 6.04 % | G2/M (%) (Caco2 cells [4]; Caco2, 5 μM, 36 hr): 15.43 ± 7.86% | S (%) (Caco2 cells [4]; Caco2, 5 μM, 36 hr): 14.23 ± 3.12% | Sub G1 (%) (Caco2 cells [4]; Caco2, 5 μM, 36 hr): 30.07 ± 6.7 % | G0/G1 (%) (Caco2 cells [4]; Caco2, 5 μM, 48 hr): 45.83 ± 3.3% | G2/M (%) (Caco2 cells [4]; Caco2, 5 μM, 48 hr): 8.7 ± 2.07 % | S (%) (Caco2 cells [4]; Caco2, 5 μM, 48 hr): 11.67 ± 2% | Sub G1 (%) (Caco2 cells [4]; Caco2, 5 μM, 48 hr): 33.53 ± 6.73 % | G2/M phase after pre-treatment then 5-FU (in words) (Caco2 cells [4]; Caco2, 12 and 24 hr pretreatment of 1 or 2 μM, then 5-FU): decreased
